From US10221139B2, “Inhibitors of histone demethylases” (Gilead Sciences, Inc., priority 2012, dated 2019)

Key:
Type in all cases: biochemical
GASC1 (KDM4C, JMJD2C) = biological target: T1, GASC1 (KDM4C, JMJD2C) (Homo sapiens, UniProt Q9H3R0); assay: Histone lysine demethylase AlphaLISA assay, GASC1; conditions: substrate BK9M3
T1 construct: 1-349; host or cells: E. coli
T1 sequence (Q9H3R0 1-349): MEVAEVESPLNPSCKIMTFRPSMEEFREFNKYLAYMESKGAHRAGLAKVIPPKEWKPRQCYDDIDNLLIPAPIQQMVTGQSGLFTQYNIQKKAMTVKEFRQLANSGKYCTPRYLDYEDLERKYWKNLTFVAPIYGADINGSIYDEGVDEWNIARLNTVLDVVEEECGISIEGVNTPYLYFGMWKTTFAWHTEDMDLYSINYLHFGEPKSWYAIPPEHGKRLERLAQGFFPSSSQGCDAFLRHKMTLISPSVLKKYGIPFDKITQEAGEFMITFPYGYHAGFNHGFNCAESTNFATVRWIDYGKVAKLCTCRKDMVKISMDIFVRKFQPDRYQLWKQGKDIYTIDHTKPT
Method in brief: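 AlphaLISA read-out, IC50. Enzyme 10 min preinc → + cpd (3% DMSO soln) 10 min → + substrate, RT → acceptor beads 60 min dark RT → streptavidin donor beads, dark RT → read.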

JMJD1B (KDM3B) = biological target: T2, JMJD1B (KDM3B) (Homo sapiens, UniProt Q7LBC6); assay: Histone lysine demethylase AlphaLISA assay, JMJD1B; conditions: substrate BK9M2
T2 construct: 842-1761; host or cells: Bac (baculovirus)
T2 sequence (Q7LBC6 842-1761): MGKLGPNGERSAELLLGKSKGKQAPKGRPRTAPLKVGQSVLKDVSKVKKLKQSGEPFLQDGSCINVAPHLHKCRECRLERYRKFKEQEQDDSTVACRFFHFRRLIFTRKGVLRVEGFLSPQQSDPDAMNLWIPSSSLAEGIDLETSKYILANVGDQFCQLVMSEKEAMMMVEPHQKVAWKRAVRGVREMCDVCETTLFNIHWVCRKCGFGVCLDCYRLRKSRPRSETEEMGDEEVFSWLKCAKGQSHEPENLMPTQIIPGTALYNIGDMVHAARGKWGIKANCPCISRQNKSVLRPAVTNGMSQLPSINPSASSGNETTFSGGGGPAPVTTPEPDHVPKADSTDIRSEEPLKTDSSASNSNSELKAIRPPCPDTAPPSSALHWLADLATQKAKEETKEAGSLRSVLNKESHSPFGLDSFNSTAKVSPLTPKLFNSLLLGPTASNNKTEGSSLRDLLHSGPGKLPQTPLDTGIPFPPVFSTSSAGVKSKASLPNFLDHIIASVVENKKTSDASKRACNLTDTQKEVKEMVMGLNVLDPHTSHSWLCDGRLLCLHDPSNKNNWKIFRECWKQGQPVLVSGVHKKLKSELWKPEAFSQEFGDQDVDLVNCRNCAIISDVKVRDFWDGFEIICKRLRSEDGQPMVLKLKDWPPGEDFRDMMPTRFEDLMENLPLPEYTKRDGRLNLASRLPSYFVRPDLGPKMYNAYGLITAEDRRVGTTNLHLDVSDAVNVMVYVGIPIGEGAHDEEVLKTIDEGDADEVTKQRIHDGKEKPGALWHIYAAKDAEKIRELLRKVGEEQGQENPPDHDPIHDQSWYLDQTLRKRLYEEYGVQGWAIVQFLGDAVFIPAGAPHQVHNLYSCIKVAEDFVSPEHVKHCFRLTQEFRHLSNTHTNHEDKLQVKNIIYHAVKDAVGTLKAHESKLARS
Method: (§1) Example 2: Histone Lysine Demethylase AlphaLISA Assays for IC50 Value Determination
(§2) Assays are performed analogously to the protocol described by Perkin Elmer (Roy et al. Perkin Elmer Technical Note: AlphaLISA #12, April 2011).
(§3) Enzymes are dissolved in enzyme buffer and incubated for 10 min before 5 μL is added to 5 μL 3% DMSO solutions of compounds in enzyme buffer. Incubated for another 10 minutes, before 5 μL substrate solution is added and the reaction mixture is incubated at room temperature for the given period. 10 μL acceptor beads, suspended at given dilutions in Epigenetic Buffer (Perkin Elmer AL008) from stock, are added and the suspension is incubated 60 minutes in the dark at room temperature, before 10 μL suspension (at the given dilutions in Epigenetic Buffer) of streptavidin donor beads (Perkin Elmer 6760002) in Epigenetic Buffer is added. After incubation at room temperature in the dark the plates are read. Reaction conditions are seen in Table 2b.

JMJD2A (KDM4A) = biological target: T3, JMJD2A (KDM4A) (Homo sapiens, UniProt O75164); assay: Histone lysine demethylase AlphaLISA assay, JMJD2A; conditions: substrate BK9M3
T3 construct: 1-350; purchased BPS, Bioscience, US; host or cells: E. coli
T3 sequence (O75164 1-350): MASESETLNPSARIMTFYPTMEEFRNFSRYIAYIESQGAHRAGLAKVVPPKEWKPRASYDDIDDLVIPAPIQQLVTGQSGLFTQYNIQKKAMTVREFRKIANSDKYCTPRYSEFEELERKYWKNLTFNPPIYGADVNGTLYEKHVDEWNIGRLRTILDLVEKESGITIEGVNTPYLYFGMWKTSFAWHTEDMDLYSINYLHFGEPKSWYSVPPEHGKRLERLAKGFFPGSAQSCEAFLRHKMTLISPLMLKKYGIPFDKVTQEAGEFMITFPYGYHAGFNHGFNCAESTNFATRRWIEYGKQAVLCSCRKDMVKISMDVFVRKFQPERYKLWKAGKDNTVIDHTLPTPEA
Method: as §1, §2, §3

JMJD3 (KDM6B) = biological target: T4, JMJD3 (KDM6B) (Homo sapiens, UniProt O15054); assay: Histone lysine demethylase AlphaLISA assay, JMJD3; conditions: substrate BK27M3
T4 construct: 1043-end; purchased BPS; host or cells: Bac (baculovirus)
Method: as §1, §2, §3

PHF8 (KDM7) = biological target: T5, PHF8 (KDM7) (Homo sapiens, UniProt Q9UPP1); assay: Histone lysine demethylase AlphaLISA assay, PHF8; conditions: substrate BK9M2
T5 construct: KDM7 (PHF8); BRIC; 1-1322; Bac
Method: as §1, §2, §3

T5 sequence (Q9UPP1 37-477 limits assumed): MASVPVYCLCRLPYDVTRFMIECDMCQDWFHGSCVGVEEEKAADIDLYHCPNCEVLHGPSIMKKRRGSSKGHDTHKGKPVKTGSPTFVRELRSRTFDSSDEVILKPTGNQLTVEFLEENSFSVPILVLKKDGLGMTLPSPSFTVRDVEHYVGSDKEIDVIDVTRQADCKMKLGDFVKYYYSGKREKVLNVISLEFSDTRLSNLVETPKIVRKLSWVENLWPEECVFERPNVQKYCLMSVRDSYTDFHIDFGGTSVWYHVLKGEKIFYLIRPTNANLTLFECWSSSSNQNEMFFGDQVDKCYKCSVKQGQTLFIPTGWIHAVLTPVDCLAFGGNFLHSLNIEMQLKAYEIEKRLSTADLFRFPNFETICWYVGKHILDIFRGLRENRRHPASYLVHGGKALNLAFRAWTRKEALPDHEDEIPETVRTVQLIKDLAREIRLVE
T4 sequence (O15054 1043-1682 isoform O15054-1 limits assumed): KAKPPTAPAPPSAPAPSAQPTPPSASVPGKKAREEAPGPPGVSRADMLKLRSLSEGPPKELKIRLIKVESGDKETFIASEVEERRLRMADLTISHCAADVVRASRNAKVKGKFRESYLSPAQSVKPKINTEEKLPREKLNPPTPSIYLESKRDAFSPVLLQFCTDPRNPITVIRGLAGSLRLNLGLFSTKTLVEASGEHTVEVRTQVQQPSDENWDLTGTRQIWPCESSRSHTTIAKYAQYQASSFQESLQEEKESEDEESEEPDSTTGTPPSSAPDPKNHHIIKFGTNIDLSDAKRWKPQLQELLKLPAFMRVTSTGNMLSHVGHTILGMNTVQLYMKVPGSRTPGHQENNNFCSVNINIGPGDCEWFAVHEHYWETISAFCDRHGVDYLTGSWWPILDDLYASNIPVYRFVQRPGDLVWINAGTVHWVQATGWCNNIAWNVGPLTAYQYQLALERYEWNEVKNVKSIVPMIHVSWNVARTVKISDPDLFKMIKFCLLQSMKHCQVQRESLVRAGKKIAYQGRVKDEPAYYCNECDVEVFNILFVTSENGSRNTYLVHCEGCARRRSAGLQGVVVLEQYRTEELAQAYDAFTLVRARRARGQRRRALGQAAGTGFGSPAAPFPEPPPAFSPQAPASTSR

Compound | IC50 (GASC1 (KDM4C, JMJD2C)) | IC50 (JMJD1B (KDM3B)) | IC50 (JMJD2A (KDM4A)) | IC50 (JMJD3 (KDM6B)) | IC50 (PHF8 (KDM7))
CCN(CCN(C)C)C(=O)CNCc1cc(C(=O)O)ccn1 [#49, 2-{[({[2-(dimethylamino)ethyl](ethyl)carbamoyl}methyl)amino]methyl}pyridine-4-carboxylic acid] | < 100 nM | ≥ 1000 nM | < 100 nM | ≥ 1000 nM | 100 to 1000 nM
2-({[(1R)-2-hydroxy-1-{methyl[3-(1-methyl-1H-imidazol-2-yl)propyl]carbamoyl}ethyl]amino}methyl)pyridine-4-carboxylic acid [#37] | < 100 nM | ≥ 1000 nM | < 100 nM | ≥ 1000 nM | ≥ 1000 nM
CCCCN1CCCC1CCNCc1cc(C(=O)O)ccn1 (stereo not drawn) [#34, 2-({[2-(1-butylpyrrolidin-2-yl)ethyl]amino}methyl)pyridine-4-carboxylic acid] | < 100 nM | ≥ 1000 nM | < 100 nM | ≥ 1000 nM | ≥ 1000 nM
O=C(O)c1ccnc(CNCC(=O)N2CCCC2)c1 [#13, 2-({[2-oxo-2-(pyrrolidin-1-yl)ethyl]amino}methyl)pyridine-4-carboxylic acid] | < 100 nM | ≥ 1000 nM | < 100 nM | ≥ 1000 nM | 100 to 1000 nM
CCCCN(C)C(=O)CNCc1cc(C(=O)O)ccn1 [#14, 2-[({[butyl(methyl)carbamoyl]methyl}amino)methyl]pyridine-4-carboxylic acid] | < 100 nM | ≥ 1000 nM | – | ≥ 1000 nM | 100 to 1000 nM

Results, then the compound that gave them:

IC50 (GASC1 (KDM4C, JMJD2C)) | IC50 (JMJD1B (KDM3B)) | IC50 (JMJD2A (KDM4A)) | IC50 (JMJD3 (KDM6B)) | IC50 (PHF8 (KDM7)) | Compound
< 100 nM | 100 to 1000 nM | < 100 nM | – | < 100 nM | COc1ccccc1CN1CCC(NC(=O)CNCc2cc(C(=O)O)ccn2)CC1 [#29, 2-({[({1-[(2-methoxyphenyl)methyl]piperidin-4-yl}carbamoyl)methyl]amino}methyl)pyridine-4-carboxylic acid]
< 100 nM | ≥ 1000 nM | < 100 nM | 100 to 1000 nM | 100 to 1000 nM | CC(C)=CCCC(C)CCN1CCC(NC(=O)CNCc2cc(C(=O)O)ccn2)C1 (stereo not drawn) [#35, 2-{[({[1-(3,7-dimethyloct-6-en-1-yl)pyrrolidin-3-yl]carbamoyl}methyl)amino]methyl}pyridine-4-carboxylic acid]
